Data from patent US11174291B2, “Silstatin compounds” (Arizona Board of Regents on behalf of Arizona State …, priority 2015, dated 2021).

What was measured:
BXPC-3 = test: NCI sulforhodamine B growth inhibition, pancreas cancer cells; type: cell-based, human; settings: BXPC3 pancreas, 48 h
Procedure: (§1) Inhibition of human cancer cell growth was assessed using the National Cancer Institute's standard sulforhodamine B assay as previously described.^19In summary, cells in a 5% fetal bovine serum/RPMI1640 medium were inoculated in 96-well plates and incubated for 24 hrs. Next, serial dilutions of the compounds were added. After 48 h, the plates were fixed with trichloroacetic acid, stained with sulforhodamine B, and read with an automated microplate reader. A growth inhibition of 50% (GI50 or the drug concentration causing a 50% reduction in the net protein increase) was calcd from optical density data with Immunosoft software. Normal cells were treated in identical conditions. Normal human prostate CRL-2221 (PZ—HPV-7) was grown in MEM 10% FBS and normal human breast MCF-10A in MEGM kit.

[1] = tested on: mini panel of cancer cell lines; test: Growth inhibition across the mini panel of cancer cell lines; type: cell-based, human; settings: for Cancer cell growth inhibition, assessment in words: mini panel of cancer cell lines (Table 1)
Procedure: as §1
The growth inhibition property of the silstatins and some intermediates were evaluated against a mini panel of cancer cell lines (Table 1).

DU-145 = test: NCI sulforhodamine B growth inhibition, prostate cancer cells; type: cell-based, human; settings: DU145 prostate, 48 h
Procedure: as §1

KM20L2 = test: NCI sulforhodamine B growth inhibition, colon cancer cells; type: cell-based, human; settings: 48 h
Procedure: as §1

MCF-7 = test: NCI sulforhodamine B growth inhibition, breast cancer cells; type: cell-based, human; settings: MCF-7 breast, 48 h
Procedure: as §1

NCI-H460 = test: NCI sulforhodamine B growth inhibition, lung cancer cells; type: cell-based, human; settings: 48 h
Procedure: as §1

SF268 = test: NCI sulforhodamine B growth inhibition, CNS cancer cells; type: cell-based, human; settings: 48 h
Procedure: as §1

CRL-2221 (PZ—HPV-7) = test: Sulforhodamine B growth inhibition, normal prostate cells; type: cell-based, human; settings: for Growth inhibition of human normal cell lines GI50: CRL-2221 normal prostate
Procedure: as §1

MCF-10A = test: Sulforhodamine B growth inhibition, normal breast cells; type: cell-based, human; settings: for Growth inhibition of human normal cell lines GI50: MCF-10A normal breast
Procedure: as §1

[2] = amide bond; 36-membered ring; 2 steps

Compound: CC(C)C[C@H]1OC(=O)[C@H](C(C)C)NC(=O)[C@H](C)OC(=O)[C@@H](C(C)C)NC(=O)[C@@H](CC2CCCCC2)OC(=O)[C@H]([C@@H](C)OC(=O)CCCN(C)C(=O)OCc2ccc(O[C@@H]3O[C@H](C(=O)O)[C@@H](O)[C@H](O)[C@H]3O)c([N+](=O)[O-])c2)NC(=O)[C@H](C)OC(=O)[C@@H](C(C)C)NC(=O)[C@@H](CC(C)C)OC(=O)[C@H](C(C)C)NC(=O)[C@H](C)OC(=O)[C@@H](C(C)C)NC1=O [Silstatin 28]
- Growth inhibition of human cancer cell lines GI50 (BXPC-3): 0.20 µg/mL
- Decrease of cancer cell growth inhibition activity with respect to the parent silstatin 7 ([1]; across the six cancer cell lines of Table 1): 16-52 times
- Growth inhibition of human cancer cell lines GI50 (DU-145): 0.13 µg/mL
- Growth inhibition of human cancer cell lines GI50 (KM20L2): 0.04 µg/mL
- Growth inhibition of human cancer cell lines GI50 (MCF-7): 0.031 µg/mL
- Growth inhibition of human cancer cell lines GI50 (NCI-H460): 0.07 µg/mL
- Growth inhibition of human cancer cell lines GI50 (SF268): 0.05 µg/mL
- Decrease of normal cell growth inhibition activity with respect to the parent silstatin 7 (18a) (CRL-2221 (PZ—HPV-7); CRL-2221): 12.5 times
- Growth inhibition of human normal cell lines GI50 (CRL-2221 (PZ—HPV-7)): 0.05 µg/mL
- Decrease of normal cell growth inhibition activity with respect to the parent silstatin 7 (18a) (MCF-10A; MCF-10A): 62.5 times
- Growth inhibition of human normal cell lines GI50 (MCF-10A): 0.25 µg/mL

Compound: Cyclo-{Tyr(tBu)-D-Hica-D-Val-Lac-[Val-D-Hica-D-Val-Lac]2}
- ring closure, isolated yield [2]: 11%

Compound: CC(C)C[C@H]1OC(=O)[C@H](C(C)C)NC(=O)[C@H](C)OC(=O)[C@@H](C(C)C)NC(=O)[C@@H](CC2CCCCC2)OC(=O)[C@H]([C@@H](C)O)NC(=O)[C@H](C)OC(=O)[C@@H](C(C)C)NC(=O)[C@@H](CC(C)C)OC(=O)[C@H](C(C)C)NC(=O)[C@H](C)OC(=O)[C@@H](C(C)C)NC1=O [Silstatin 7 (18a), Cyclo-{Thr-D-Hcha-D-Val-Lac-[Val-D-Hica-D-Val-Lac]2}]
- Growth inhibition of human cancer cell lines GI50 (BXPC-3): 0.0038 µg/mL
- Cancer cell growth inhibition, assessment in words [1]: rescuing the activity
- Growth inhibition of human cancer cell lines GI50 (DU-145): 0.003 µg/mL
- Growth inhibition of human cancer cell lines GI50 (KM20L2): 0.0015 µg/mL
- Growth inhibition of human cancer cell lines GI50 (MCF-7): 0.0014 µg/mL
- Growth inhibition of human cancer cell lines GI50 (NCI-H460): 0.0032 µg/mL
- Growth inhibition of human cancer cell lines GI50 (SF268): 0.0031 µg/mL
- Growth inhibition of human normal cell lines GI50 (CRL-2221 (PZ—HPV-7)): 0.004 µg/mL
- Growth inhibition of human normal cell lines GI50 (MCF-10A): 0.004 µg/mL

Compound: Cyclo-{Thr(tBu)-D-Hcha-D-Val-Lac-[Val-D-Hica-D-Val-Lac]2}
- ring closure, isolated yield [2]: 48%

Compound: Cyclo-[Val-D-Hica-D-Val-Lac]3
- ring closure, isolated yield [2]: 28%

Compound: Cyclo-{Thr(tBu)-D-Hica-D-Val-Lac-[Val-D-Hica-D-Val-Lac]2}
- ring closure, isolated yield [2]: 33%

Compound: Cyclo-{Thr(tBu)-D-Hcha-D-Val-Lac-[Val-D-Hcha-D-Val-Lac]2}
- ring closure, isolated yield [2]: 29%

Compound: CC(C)[C@@H]1NC(=O)[C@H](C)OC(=O)[C@@H](C(C)C)NC(=O)[C@@H](CC2CCCCC2)OC(=O)[C@H](C(C)C)NC(=O)[C@H](C)OC(=O)[C@@H](C(C)C)NC(=O)[C@@H](CC2CCCCC2)OC(=O)[C@H](Cc2ccc(O)cc2)NC(=O)[C@H](C)OC(=O)[C@@H](C(C)C)NC(=O)[C@@H](CC2CCCCC2)OC1=O [Silstatin 6 (15b), Cyclo-{Tyr-D-Hcha-D-Val-Lac-[Val-D-Hcha-D-Val-Lac]2}]
- Growth inhibition of human cancer cell lines GI50 (BXPC-3): 0.53 µg/mL
- Cancer cell growth inhibition, assessment in words [1]: marked reduction of cancer cell growth inhibition capability
- Growth inhibition of human cancer cell lines GI50 (DU-145): 0.22 µg/mL
- Growth inhibition of human cancer cell lines GI50 (KM20L2): 0.09 µg/mL
- Growth inhibition of human cancer cell lines GI50 (MCF-7): 0.12 µg/mL
- Growth inhibition of human cancer cell lines GI50 (NCI-H460): 0.32 µg/mL
- Growth inhibition of human cancer cell lines GI50 (SF268): 0.05 µg/mL

Compound: Cyclo-{Tyr(tBu)-D-Hcha-D-Val-Lac-[Val-D-Hcha-D-Val-Lac]2}
- ring closure, isolated yield [2]: 34%

Compound: Cyclo-{Tyr(tBu)-D-Hcha-D-Val-Lac-[Val-D-Hica-D-Val-Lac]2}
- ring closure, isolated yield [2]: 22%

Compound: CC(C)[C@@H]1NC(=O)[C@H](C)OC(=O)[C@@H](C(C)C)NC(=O)[C@@H](CC2CCCCC2)OC(=O)[C@H](C(C)C)NC(=O)[C@H](C)OC(=O)[C@@H](C(C)C)NC(=O)[C@@H](CC2CCCCC2)OC(=O)[C@H](C(C)C)NC(=O)[C@H](C)OC(=O)[C@@H](C(C)C)NC(=O)[C@@H](CC2CCCCC2)OC1=O [Silstatin 4 (14a), Cyclo-[Val-D-Hcha-D-Val-Lac]3]
- Growth inhibition of human cancer cell lines GI50 (BXPC-3): 0.5 µg/mL
- Cancer cell growth inhibition, assessment in words [1]: marked reduction of cancer cell growth inhibition capability
- Growth inhibition of human cancer cell lines GI50 (DU-145): 0.22 µg/mL
- Growth inhibition of human cancer cell lines GI50 (KM20L2): 0.18 µg/mL
- Growth inhibition of human cancer cell lines GI50 (MCF-7): 0.18 µg/mL
- Growth inhibition of human cancer cell lines GI50 (NCI-H460): 0.4 µg/mL
- Growth inhibition of human cancer cell lines GI50 (SF268): 0.081 µg/mL

Compound: Cyclo-[Val-D-Hcha-D-Val-Lac]3
- ring closure, isolated yield [2]: 23%
